From patent publication US20240034729A9, “HETEROCYCLIC COMPOUND, INTERMEDIATE, PREPARATION METHOD THEREFOR AND APPLICATION THEREOF” (WUHAN LL SCIENCE AND TECHNOLOGY DEVELOPMENT CO., LTD., priority 2018, published 2024)
Read-outs that look alike come from different tables or passages of the source.

Target: hP2X3 (human purinergic P2X receptor subtype 3) (Homo sapiens (Human), UniProt P56373)
Assay: FLIPR calcium assay, hP2X3 expressed in HEK293 cells
Assay type: cell-based
Details: read-out: P2X3 IC50
[1] = HEK293 cells expressing hP2X3, agonist BZ-ATP 2.5 μM, class symbols

Sequence of hP2X3 (human purinergic P2X receptor subtype 3) (P56373 whole entry): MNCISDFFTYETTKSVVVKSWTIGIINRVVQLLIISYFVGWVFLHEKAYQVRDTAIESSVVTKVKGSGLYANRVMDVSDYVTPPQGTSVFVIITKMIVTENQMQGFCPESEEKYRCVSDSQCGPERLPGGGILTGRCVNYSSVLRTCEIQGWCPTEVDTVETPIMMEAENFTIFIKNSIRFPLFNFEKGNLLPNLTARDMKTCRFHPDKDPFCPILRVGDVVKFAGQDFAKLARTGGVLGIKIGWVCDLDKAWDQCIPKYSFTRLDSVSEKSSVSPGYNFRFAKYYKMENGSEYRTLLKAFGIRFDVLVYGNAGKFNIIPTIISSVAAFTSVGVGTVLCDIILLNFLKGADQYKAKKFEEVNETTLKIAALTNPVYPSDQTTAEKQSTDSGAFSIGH

Compound: CNC(=O)c1cc(F)c(C2=CC3C=C(C)C=CN3N2C[C@H]2CN(C(=O)OC)CCO2)c(F)c1 (stereo partly drawn) [Compound 41]
- IC50 [1]: 200 to 5000 nM

Compound: CNC(c1cc(F)c(-c2nc3cc(C)ccn3c2C[C@H]2CN(C(=O)OC)CCO2)c(F)c1)C(F)(F)F (stereo partly drawn) [Compound 68, methyl (S)-2-((2-(2,6-difluoro-4-(2,2,2-trifluoro-1-(methylamino)ethyl)phenyl)-7-methylimidazo[1,2-a]pyridin-3-yl)methyl)morpholine-4-carboxylate]
- IC50: 10 to 50 nM

Compound: COC(=O)N1CCO[C@@H](Cc2c(-c3c(F)cc(-n4cnc(C#N)c4)cc3F)nc3cc(C)ccn23)C1 [Compound 192, methyl (S)-2-((2-(4-(4-cyano-1H-imidazol-1-yl)-2,6-difluorophenyl)-7-methylimidazo[1,2-a]pyridin-3-yl)methyl)morpholine-4-carboxylate]
- IC50: 10 to 50 nM

Compound: CNC1(c2cc(F)c(-c3nc4cc(C)ccn4c3C[C@H]3CN(C(=O)OC)CCO3)c(F)c2)CC1 [Compound 67, methyl (S)-2-((2-(2,6-difluoro-4-(1-(methylamino)cyclopropyl)phenyl)-7-methylimidazo[1,2-a]pyridin-3-yl)methyl) morpholine-4-carboxylate]
- IC50: 10 to 50 nM

Compound: (S,E)-4-((3,5-difluoro-4-(3-((4-(methoxycarbonyl)-morpholin-2-yl)-methyl)-7-methylimidazo[1,2-a]pyri din-2-yl)-phenyl)-amino)-4-oxobutyl-2-enoic acid [Compound 27]
- IC50: < 10 nM

Compound: COC(=O)N1CCO[C@@H](Cc2c(-c3c(F)cc(-c4ncc(C#N)o4)cc3F)nc3cc(C)ccn23)C1 [Compound 120]
- IC50: < 10 nM

Compound: COC(=O)N1CCO[C@@H](Cc2c(-c3c(F)cc(-c4nc(C(=O)O)co4)cc3F)nc3cc(C)ccn23)C1 [Compound 114, (S)-2-(3,5-difluoro-4-(3-((4-(methoxycarbonyl)morpholin-2-yl)methyl)-7-methylimidazo[1,2-a]pyridin-2-yl)phenyl)oxazole-4-carboxylic acid]
- IC50: 10 to 50 nM

Compound: COC(=O)N1CCO[C@@H](Cc2c(-c3c(F)cc(-c4nc(C5(O)CC5)co4)cc3F)nc3cc(C)ccn23)C1 [Compound 118]
- IC50 [1]: 200 to 5000 nM

Compound: COC(=O)N1CCO[C@@H](Cc2c(-c3c(F)cc(NC(C)=O)cc3F)nc3cc(C(F)(F)F)ccn23)C1 [Compound 153, methyl (S)-2-((2-(4-acetamido-2,6-difluorophenyl)-7-(trifluoromethyl)imidazo[1,2-a]pyridin-3-yl)methyl)morpholine-4-carboxylate]
- IC50: 50 to 200 nM

Compound: COC(=O)N1CCO[C@@H](Cc2c(-c3c(F)cc(-c4nc(C#N)c[nH]4)cc3F)nc3cc(F)ccn23)C1 [Compound 106]
- IC50: 10 to 50 nM

Compound: COC(=O)N1CCO[C@@H](Cc2c(-c3c(F)cc(NC(=O)C4CCC(=O)CC4)cc3F)nc3cc(C)ccn23)C1 [Compound 83]
- IC50: 50 to 200 nM

Compound: CNC(=O)c1c[nH]c(-c2nc3cc(C)ccn3c2C[C@H]2CN(C(=O)OC)CCO2)c1F [Compound 24]
- IC50 [1]: 200 to 5000 nM

Compound: COC(=O)N1CCO[C@@H](Cc2c(-c3c(F)cc(-c4nc(C(C)(C)O)c[nH]4)cc3F)nc3cc(C)ccn23)C1 [Compound 115]
- IC50 [1]: 200 to 5000 nM

Compound: COC(=O)N1CCO[C@@H](Cc2c(-c3c(F)cc(N4CCN(C)CC4=O)cc3F)nc3cc(C)ccn23)C1 [Compound 45, methyl (S)-2-((2-(2,6-difluoro-4-(4-methyl-2-oxopiperazin-1-yl)phenyl)-7-methylimidazo[1,2-a]pyridin-3-yl)methyl) morpholine-4-carboxylate]
- IC50 [1]: 200 to 5000 nM

Compound: COC(=O)N1CCO[C@@H](Cc2c(-c3c(F)cc(S(N)(=O)=O)cc3Cl)nc3cc(Cl)ccn23)C1 [Compound 179, methyl (S)-2-((7-chloro-2-(2-chloro-6-fluoro-4-sulfamoylphenyl)imidazo[1,2-a]pyridin-3-yl)methyl)morpholine-4-carboxylate]
- IC50: 0.4 nM

Compound: COC(=O)N1CCO[C@@H](Cc2c(-c3c(F)cc(Nc4ccco4)cc3F)nc3cc(C)ccn23)C1 [Compound 74]
- IC50: 50 to 200 nM

Compound: COC(=O)N1CCO[C@@H](Cc2c(-c3c(F)cc(NC(=O)c4ccccc4)cc3F)nc3cc(C)ccn23)C1 [Compound 84]
- IC50: 50 to 200 nM

Compound: COC(=O)N1CCO[C@@H](Cc2c(-c3c(F)cc(-c4nc(C5(O)CC5)c[nH]4)cc3F)nc3cc(C)ccn23)C1 [Compound 116]
- IC50: 10 to 50 nM

Compound: COC(=O)N1CCO[C@@H](Cc2c(-c3c(F)cc(NC(=O)CC(C)C(N)=O)cc3F)nc3cc(C)ccn23)C1 (stereo partly drawn) [Compound 170]
- IC50: 50 to 200 nM

Compound: COC(=O)N1CCO[C@@H](Cc2c(-c3c(F)cc(O)cc3F)nc3cc(C)ccn23)C1 [Compound 35, methyl (S)-2-((2-(2,6-difluoro-4-hydroxyphenyl)-7-methylimidazo[1,2-a]pyridin-3-yl)methyl)morpholine-4-carboxylate]
- IC50 [1]: 200 to 5000 nM

Compound: COC(=O)N1CCO[C@@H](Cc2c(-c3c(F)cc(-n4ccc(C5(O)CC5)n4)cc3F)nc3cc(C)ccn23)C1 [Compound 131]
- IC50: 10 to 50 nM

Compound: CNC(=O)c1ccnc(Cc2c(-c3c(F)cc(S(N)(=O)=O)cc3F)nc3cc(C)ccn23)c1 [Compound 185]
- IC50: 13 nM

Compound: COC(=O)N1CCO[C@@H](Cc2c(-c3c(F)cc(-n4ccnc4)cc3F)nc3cc(F)ccn23)C1 [Compound 132]
- IC50: < 10 nM

Compound: COC(=O)N1CCO[C@@H](Cc2c(-c3c(F)cc(-c4ccon4)cc3F)nc3cc(C)ccn23)C1 [Compound 16, methyl (S)-2-((2-(2,6-difluoro-4-(isoxazol-3-yl)phenyl)-7-methylimidazo[1,2-a]pyridin-3-yl)methyl)morpholine-4-carboxylate]
- IC50: 10 to 50 nM

Compound: CCC(=O)N1CCO[C@@H](Cc2c(-c3c(F)cc(-c4nc(C#N)co4)cc3F)nc3cc(C)ccn23)C1 [Compound 121]
- IC50 [1]: 200 to 5000 nM

Compound: CNC(=O)c1ccc(-c2nc3cc(C)ccn3c2C[C@H]2CN(C(=O)OC)CCO2)s1 [Compound 21, methyl (S)-2-((7-methyl-2-(5-(methylcarbamoyl)thiophen-2-yl)imidazo[1,2-a]pyridin-3-yl)methyl)morpholine-4-carboxylate]
- IC50 [1]: 200 to 5000 nM

Compound: COC(=O)N1CCO[C@@H](Cc2c(-c3c(F)cc(S(N)(=O)=O)cc3F)nc3cc(Cl)c(F)cn23)C1 [Compound 183, methyl (S)-2-((7-chloro-2-(2,6-difluoro-4-sulfamoylphenyl)-6-fluoroimidazo[1,2-a]pyridin-3-yl)methyl)morpholine-4-carboxylate]
- IC50: 5.5 nM

Compound: COC(=O)N1CCO[C@@H](Cc2c(-c3c(F)cc(-n4cnc(N)c4)cc3F)nc3cc(C)ccn23)C1 [Compound 111]
- IC50: 10 to 50 nM

Compound: COC(=O)N1CCO[C@@H](Cc2c(-c3c(F)cc(NC(=O)c4ccc(C(=O)O)cc4)cc3F)nc3cc(C)ccn23)C1 [Compound 85, (S)-4-((3,5-difluoro-4-(3-((4-(carbomethoxy<methoxycarbonyl>)morpholin-2-yl)methyl)-7-methylimidazo[1,2-a]pyridin-2-yl)phenyl)carbamoyl)benzoic acid]
- IC50: 50 to 200 nM

Compound: COC(=O)N1CCO[C@@H](Cc2c(-c3c(F)cc(-n4nccc4C#N)cc3F)nc3cc(C)ccn23)C1 [Compound 124-2]
- IC50 [1]: ≤ 10 nM

Compound: COC(=O)N1CCO[C@@H](Cc2c(-c3c(F)cc(-n4cnc(C(=O)O)c4)cc3F)nc3cc(C)ccn23)C1 [Compound 107, (S)-1-(3,5-difluoro-4-(3-((4-(carbomethoxy<methoxycarbonyl>)morpholin-2-yl)methyl)-7-methylimidazo[1,2-a]pyridin-2-yl)phenyl)-1H-imidazole-4-carboxylic acid]
- IC50 [1]: 10 to 50 nM

Compound: CNC(=O)c1cc(F)c(-c2[nH]c3cc(C)ccc3c2C[C@H]2CN(C(=O)OC)CCO2)c(F)c1 [Compound 39]
- IC50 [1]: 200 to 5000 nM

Compound: COC(=O)N1CCO[C@@H](Cc2c(-c3c(F)cc(-c4nc(C(F)(F)F)c[nH]4)cc3F)nc3cc(C)ccn23)C1 [Compound 37, methyl (S)-2-((2-(2,6-difluoro-4-(4-trifluoromethyl-1H-imidazol-2-yl)phenyl)-7-methylimidazo[1,2-a]pyridin-3-yl)methyl)morpholine-4-carboxylate]
- IC50: < 10 nM

Compound: COC(=O)N1CCO[C@@H](Cc2c(C3CCN(C(C)=O)CC3)nc3cc(C)ccn23)C1 [Compound 30, methyl (S)-2-((2-(1-acetylpiperidin-4-yl)-7-methylimidazo[1,2-a]pyridin-3-yl)methyl)morpholine-4-carboxylate]
- IC50: 10 to 50 nM

Compound: COC(=O)N1CCO[C@@H](Cc2c(-c3c(F)cc(-n4ccc(C#N)n4)cc3F)nc3cc(C)ccn23)C1 [Compound 124]
- IC50: < 10 nM

Compound: CNC(=O)c1cc(F)c(-c2nc3n(c2C[C@H]2CN(C(=O)OC)CCO2)CCC(C)C3)c(F)c1 (stereo partly drawn) [Compound 44, methyl (2S)-2-((2-(2,6-difluoro-4-(methylcarbamoyl)phenyl)-7-methyl-5,6,7,8-tetrahydroimidazo[1,2-a]pyridin-3-yl)methyl)morpholine-4-carboxylate]
- IC50: < 10 nM

Compound: COC(=O)N1CCO[C@@H](Cc2c(-c3c(F)cc(NC(=O)CC4(C#N)CC4)cc3F)nc3cc(C)ccn23)C1 [Compound 96]
- IC50: 10 to 50 nM

Compound: COC(=O)N1CCO[C@@H](Cc2c(-c3c(F)cc(-n4ccc(C(C)(C)O)c4)cc3F)nc3cc(C)ccn23)C1 [Compound 135]
- IC50: < 10 nM

Compound: COC(=O)N1CCO[C@@H](Cc2c(-c3c(F)cc(-n4cnc(C(F)(F)F)c4)cc3F)nc3cc(C)ccn23)C1 [Compound 109, methyl (S)-2-((2-(2,6-difluoro-4-(4-trifluoromethyl-1H-imidazol-1-yl)phenyl)-7-methylimidazo[1,2-a]pyridin-3-yl)methyl)morpholine-4-carboxylate]
- IC50: 50 to 200 nM

Compound: COC(=O)N1CCO[C@@H](Cc2c(-c3c(F)cc(NS(C)(=O)=O)cc3F)nc3cc(C)ccn23)C1 [Compound 152]
- IC50: < 10 nM

Compound: CNC(=O)c1cc(F)c(-c2nc3cc(C)ccn3c2CC(N)=O)c(F)c1 [Compound 19, 4-(3-(2-amino-2-oxoethyl)-7-methylimidazo[1,2-a]pyridine)-3,5-difluorobenzoylmethylamine]
- IC50 [1]: 200 to 5000 nM

Compound: COC(=O)N1CCO[C@@H](Cc2c(-c3c(F)cc(NC4CCC(=O)CC4)cc3F)nc3cc(C)ccn23)C1 [Compound 80, methyl (S)-2-((2-(2,6-difluoro-4-((4-carbonylcyclohexyl)amino)phenyl)-7-methylimidazo[1,2-a]pyridin-3-yl)methyl) morpholine-4-carboxylate]
- IC50: 10 to 50 nM
